According to PubChem BioAssay (NCI):
“And” between values parts separate entries of the source, which are not always exact repeats. Equal entries are not always repeated.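 Exposure lasted 48 hours, with cells grown in 96-well plates and compounds tested at five concentrations. GI50 = concentration required for 50% inhibition of growth. TGI: total growth inhibition.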

Tests used:
Test in all cases: NCI-60 cell line screen, 48 h
A498 renal = test system: A498 renal
DU-145 prostate = test system: DU-145 prostate
EKVX NSCLC = test system: EKVX NSCLC
HCT-15 colon = test system: HCT-15 colon
HL-60(TB) leukemia = test system: HL-60(TB) leukemia
SF-268 CNS = test system: SF-268 CNS
SF-539 CNS = test system: SF-539 CNS
SK-MEL-2 melanoma = test system: SK-MEL-2 melanoma
TK-10 renal = test system: TK-10 renal
UACC-257 melanoma = test system: UACC-257 melanoma

Row | SMILES | GI50 (A498 renal) | TGI (A498 renal) | GI50 (DU-145 prostate) | TGI (DU-145 prostate) | GI50 (EKVX NSCLC) | TGI (EKVX NSCLC) | GI50 (HCT-15 colon) | TGI (HCT-15 colon) | GI50 (HL-60(TB) leukemia) | TGI (HL-60(TB) leukemia) | GI50 (SF-268 CNS) | TGI (SF-268 CNS) | GI50 (SF-539 CNS) | TGI (SF-539 CNS) | GI50 (SK-MEL-2 melanoma) | TGI (SK-MEL-2 melanoma) | GI50 (TK-10 renal) | TGI (TK-10 renal) | GI50 (UACC-257 melanoma) | TGI (UACC-257 melanoma)
1 | O=C(NC1CCNCC1)c1[nH]ncc1NC(=O)c1c(Cl)cccc1Cl | 0.552 µM and 0.698 µM | 1.77 µM and 1.78 µM | 0.417 µM and 0.472 µM | > 23.6 µM | 0.998 µM | > 10 µM | 9.83 µM and 9.93 µM | > 100 µM | 0.305 µM and 0.285 µM | 1.09 µM and 1.64 µM | 0.343 µM and 0.352 µM | 3.82 µM and > 7.39 µM | 0.271 µM and 0.257 µM | 0.7 µM and 0.666 µM | 0.216 µM and 0.303 µM | 0.519 µM and 1.14 µM | 1.49 µM and 1.44 µM | 6.93 µM and > 10 µM | 1.42 µM and 1.92 µM | 4.56 µM and > 7.47 µM
2 | Cc1cc(NS(=O)(=O)c2ccc(NC(=O)COc3ccc(-c4cc5ccccc5[nH]4)cc3)cc2)no1 | 1.7 µM | 6.58 µM | 2.22 µM | 5.18 µM | 2.32 µM | 8.45 µM | 2.32 µM | 7.35 µM | 2.84 µM | 32.6 µM | 2.33 µM | 7.74 µM | 1.98 µM | 4.61 µM | 1.86 µM | 3.76 µM | 2.04 µM | 5.45 µM | 2.07 µM | 6.27 µM
3 | Cc1ccc2nc3sc(=O)sc3nc2c1 |  | 20.2 µM |  | > 100 µM |  | 27.2 µM |  | 31.3 µM |  | 44.1 µM |  | 30.1 µM |  | 35.1 µM |  | 29 µM |  | 30 µM |  | 32.1 µM
4 | O=NNc1ccc(Sc2ccc3ccccc3c2)cn1 |  | > 100 µM |  | 79.7 µM |  | > 100 µM |  | 60 µM |  | 24.9 µM |  | > 100 µM |  | > 100 µM |  | 43.4 µM |  | > 100 µM |  | > 100 µM
5 | O=C1c2ccccc2-c2c1c1c(O)cccc1n2CCCc1ccccc1 | 17.3 µM | 43.2 µM | 28.1 µM | > 100 µM | 10.3 µM | 98.3 µM | 4.11 µM | > 100 µM | 28.1 µM | > 100 µM | 88.5 µM | > 100 µM | 23.1 µM | > 100 µM | 18.5 µM | 87.3 µM | 10.1 µM | 56.7 µM | 19.7 µM | 50.8 µM
6 | COc1ccc(Oc2nc(Nc3ccc(N4CCOCC4)cc3)ncc2NC(=O)Nc2cc(OC)cc(OC)c2)cc1 | 4.75 µM | 15 µM | 1.66 µM | 7.59 µM | 7.56 µM | > 33.3 µM | 15.4 µM | > 33.3 µM | 10.8 µM | > 33.3 µM | 2.64 µM | > 33.3 µM | 1.06 µM | 4.69 µM | 4.11 µM | 15.9 µM | 6.58 µM | > 33.3 µM | 5.47 µM | 23.8 µM
7 | C=C1C(=O)O[C@H]2[C@H]1CC/C(COC(=O)c1cccc3ccccc13)=C\CC[C@@]1(C)O[C@@H]21 | 14.5 µM | 28.4 µM | 1.5 µM | 2.86 µM | 1.81 µM | 3.94 µM | 1.19 µM | 2.89 µM | 1.66 µM | 7.56 µM | 1.6 µM | 3.38 µM | 1.29 µM | 2.7 µM | 1.63 µM | 3.38 µM | 1.85 µM | 3.42 µM | 1.46 µM | 2.83 µM
8 | Cc1ccc(C2NC(=S)N3C(c4ccc(C)cc4)NC(=S)N23)cc1 (stereo not given) | 5.57 µM | 18 µM | 3.62 µM | 13.6 µM | 7.93 µM | 25.3 µM | 3.7 µM | 15.3 µM | 1.88 µM | 5.67 µM | 7.78 µM | 22.1 µM | 4.12 µM | 13.7 µM | 3.4 µM | 12.1 µM | 12.3 µM | 26.9 µM | 10.3 µM | 22.6 µM
